Laboratory results published in PubChem BioAssay AID330 (DTP/NCI, 2004).
Several values for one entry are separate records, joined by “and”; a condition that tells them apart may be missing. Equal values may be shown once. Toxic doses and inconclusive results are not listed. How the source made its calls: active means survival T/C of 150% or more; inactive means T/C below 125% in these data. Square brackets hold non-standard residues; d marks the D form. Peptide text beside a SMILES is read from it. * marks the point of attachment. Cbz = O=C(OCc1ccccc1)*; Nva = CCC[CH](N)C(=O)O

Tested on: P388 leukemia ip, CD2F1 mice, survival T/C
Test: NCI In Vivo Anticancer Drug Screen. Data for tumor model P388 Leukemia (intraperitoneal) in CD2F1 (CDF1) mice
Conditions: endpoint: median survival time, higher = longer survival
Outline: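 Mice carrying the transplanted tumor received test compound or vehicle. Survival was recorded in each group, and the value is the treated-group measurement divided by that of the vehicle-treated control group.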

[1] = dose: 50.0 mg/kg/injection, schedule: Q01DX005 (ip), vehicle: Klucel (hydroxypropylcellulose) (HPC)
[2] = dose: 100.0 mg/kg/injection, schedule: Q01DX005 (ip), vehicle: Klucel (hydroxypropylcellulose) (HPC)
[3] = dose: 200.0 mg/kg/injection, schedule: Q01DX005 (ip), vehicle: Klucel (hydroxypropylcellulose) (HPC)
[4] = dose: 50.0 mg/kg/injection, schedule: Q01DX005 (ip), vehicle: saline with Tween-80
[5] = dose: 100.0 mg/kg/injection, schedule: Q01DX005 (ip), vehicle: saline with Tween-80
[6] = dose: 200.0 mg/kg/injection, schedule: Q01DX005 (ip), vehicle: saline with Tween-80

Measured: T/C

c1ccc2nc(C[n+]3cccc4ccccc43)ccc2c1
inactive: dose: 3.12 mg/kg/injection, schedule: Q01DX005 (ip), vehicle: saline 105 % of control | dose: 6.25 mg/kg/injection, schedule: Q01DX005 (ip), vehicle: saline 106 % of control | dose: 12.5 mg/kg/injection, schedule: Q01DX005 (ip), vehicle: saline 109 % of control

COc1cc2c(c(OC(C)=O)c1OC)-c1ccc(OC)c(=O)cc1[C@@H](NC(C)=O)CC2
inactive: dose: 1.25 mg/kg/injection, schedule: Q01DX009 (ip), vehicle: Klucel (hydroxypropylcellulose) (HPC) 94 % of control | dose: 2.5 mg/kg/injection, schedule: Q01DX009 (ip), vehicle: Klucel (hydroxypropylcellulose) (HPC) 92 % of control | dose: 5.0 mg/kg/injection, schedule: Q01DX009 (ip), vehicle: Klucel (hydroxypropylcellulose) (HPC) 100 % of control | dose: 10.0 mg/kg/injection, schedule: Q01DX009 (ip), vehicle: Klucel (hydroxypropylcellulose) (HPC) 100 % of control | dose: 20.0 mg/kg/injection, schedule: Q01DX009 (ip), vehicle: Klucel (hydroxypropylcellulose) (HPC) 109 % of control

CN(C)CCN(N)CCN(C)C
inactive: dose: 50.0 mg/kg/injection, schedule: Q01DX005 (ip), vehicle: saline 94 % of control | dose: 100.0 mg/kg/injection, schedule: Q01DX005 (ip), vehicle: saline 105 % of control | dose: 200.0 mg/kg/injection, schedule: Q01DX005 (ip), vehicle: saline 100 % of control

CCCC(NC(=O)OCc1ccccc1)C(=O)NC(Cc1ccccc1)C(N)=O (stereo unspecified) (Cbz-[Nva]-Phe-NH2; configuration not given here)
inactive: [1] 89 % of control | [2] 97 % of control | [3] 88 % of control

CCOC(=O)N1C(=O)C=CC1=O
inactive: dose: 18.75 mg/kg/injection, schedule: Q01DX009 (ip), vehicle: saline with Tween-80 106 % of control | dose: 37.5 mg/kg/injection, schedule: Q01DX009 (ip), vehicle: saline with Tween-80 104 % of control | dose: 75.0 mg/kg/injection, schedule: Q01DX009 (ip), vehicle: saline with Tween-80 105 % of control and 91 % of control | dose: 150.0 mg/kg/injection, schedule: Q01DX009 (ip), vehicle: saline with Tween-80 113 % of control

COc1cc2c(cc1OC)C1CCN3C(=O)CCC3[N+]1(C)CC2 (stereo unspecified)
inactive: dose: 25.0 mg/kg/injection, schedule: Q01DX009 (ip), vehicle: saline sonified 90 % of control | dose: 50.0 mg/kg/injection, schedule: Q01DX009 (ip), vehicle: saline sonified 90 % of control | dose: 100.0 mg/kg/injection, schedule: Q01DX009 (ip), vehicle: saline sonified 90 % of control

Cc1cc(=O)n2c(n1)sc1cc3ccccc3cc12
inactive: dose: 100.0 mg/kg/injection, schedule: Q04DX002 (ip), vehicle: Klucel (hydroxypropylcellulose) (HPC) 98 % of control | dose: 200.0 mg/kg/injection, schedule: Q04DX002 (ip), vehicle: Klucel (hydroxypropylcellulose) (HPC) 100 % of control | dose: 400.0 mg/kg/injection, schedule: Q04DX002 (ip), vehicle: Klucel (hydroxypropylcellulose) (HPC) 99 % of control

O=C(Nc1nnc(-c2ccccc2)s1)c1cc(=O)c2cc([N+](=O)[O-])ccc2o1
inactive: [4] 100 % of control | [5] 102 % of control | [6] 96 % of control

O=Cc1c[nH]c2ccc(Br)cc12
inactive: dose: 100.0 mg/kg/injection, schedule: Q01DX001 (ip), vehicle: other 100 % of control | dose: 200.0 mg/kg/injection, schedule: Q01DX001 (ip), vehicle: other 90 % of control | dose: 400.0 mg/kg/injection, schedule: Q01DX001 (ip), vehicle: other 100 % of control

O=c1ccc2ccc3occc(=O)c3c2o1
inactive: [4] 106 % of control | [5] 108 % of control | [6] 98 % of control

Brc1cc(-c2ccccc2)ccc1OCC1CO1 (stereo unspecified)
inactive: [1] 101 % of control | [2] 108 % of control | [3] 97 % of control

O=C(CCCNC(=O)OCc1ccccc1)OCc1ccc2c(c1)C(=O)c1ccccc1C2=O
inactive: dose: 100.0 mg/kg/injection, schedule: Q01DX001 (ip), vehicle: Klucel (hydroxypropylcellulose) (HPC) 89 % of control | dose: 200.0 mg/kg/injection, schedule: Q01DX001 (ip), vehicle: Klucel (hydroxypropylcellulose) (HPC) 88 % of control | dose: 400.0 mg/kg/injection, schedule: Q01DX001 (ip), vehicle: Klucel (hydroxypropylcellulose) (HPC) 86 % of control

COC(=O)C1=C(N)N2C/C(=C/c3cccs3)SC2=C(C(=O)OC)C1c1cccs1 (stereo unspecified)
inactive: dose: 12.5 mg/kg/injection, schedule: Q01DX005 (ip), vehicle: saline with Tween-80 96 % of control | dose: 25.0 mg/kg/injection, schedule: Q01DX005 (ip), vehicle: saline with Tween-80 91 % of control | [4] 86 % of control and 91 % of control

OCC1OC(OC2(CO)OC(CO)C(O)C2O)C(O)C(O)C1O (stereo unspecified)
inactive: dose: 4.0 mg/kg/injection, schedule: Q01DX005 (ip), vehicle: saline 98 % of control | dose: 8.0 mg/kg/injection, schedule: Q01DX005 (ip), vehicle: saline 96 % of control | dose: 32.0 mg/kg/injection, schedule: Q01DX005 (ip), vehicle: saline 96 % of control | dose: 64.0 mg/kg/injection, schedule: Q01DX005 (ip), vehicle: saline 97 % of control | dose: 100.0 mg/kg/injection, schedule: Q01DX009 (ip), vehicle: saline 97 % of control | dose: 128.0 mg/kg/injection, schedule: Q01DX005 (ip), vehicle: saline 99 % of control | dose: 200.0 mg/kg/injection, schedule: Q01DX009 (ip), vehicle: saline 97 % of control | dose: 256.0 mg/kg/injection, schedule: Q01DX005 (ip), vehicle: saline 98 % of control | dose: 400.0 mg/kg/injection, schedule: Q01DX009 (ip), vehicle: saline 98 % of control | dose: 512.0 mg/kg/injection, schedule: Q01DX005 (ip), vehicle: saline 100 % of control | dose: 1024.0 mg/kg/injection, schedule: Q01DX005 (ip), vehicle: saline 106 % of control | dose: 2048.0 mg/kg/injection, schedule: Q01DX005 (ip), vehicle: saline 108 % of control

Cn1c(=O)c2nc(-c3ccccc3)c(-c3ccccc3)nc2n(C)c1=O
inactive: dose: 12.5 mg/kg/injection, schedule: Q01DX009 (ip), vehicle: saline with Tween-80 96 % of control | dose: 25.0 mg/kg/injection, schedule: Q01DX009 (ip), vehicle: saline with Tween-80 96 % of control | dose: 50.0 mg/kg/injection, schedule: Q01DX009 (ip), vehicle: saline with Tween-80 107 % of control | dose: 100.0 mg/kg/injection, schedule: Q01DX009 (ip), vehicle: saline with Tween-80 107 % of control

O=NNc1cnc2ccccc2n1
inactive: dose: 3.12 mg/kg/injection, schedule: Q01DX009 (ip), vehicle: water 106 % of control | dose: 6.25 mg/kg/injection, schedule: Q01DX009 (ip), vehicle: water 103 % of control | dose: 12.5 mg/kg/injection, schedule: Q01DX009 (ip), vehicle: water 106 % of control and 112 % of control | dose: 25.0 mg/kg/injection, schedule: Q01DX009 (ip), vehicle: water 120 % of control and 121 % of control | dose: 50.0 mg/kg/injection, schedule: Q01DX009 (ip), vehicle: water 113 % of control and 87 % of control

COc1ccc(C2COc3cc(O)c(O)cc3C2)cc1OC (stereo unspecified)
inactive: dose: 60.0 mg/kg/injection, schedule: Q01DX005 (ip), vehicle: saline with Tween-80 101 % of control | dose: 120.0 mg/kg/injection, schedule: Q01DX005 (ip), vehicle: saline with Tween-80 97 % of control | dose: 240.0 mg/kg/injection, schedule: Q01DX005 (ip), vehicle: saline with Tween-80 101 % of control

O=C1OC2(c3ccccc31)c1cc(I)c(O)c(I)c1Oc1c2cc(I)c(O)c1I
inactive: dose: 100.0 mg/kg/injection, schedule: Q04DX003 (ip), vehicle: saline with Tween-80 91 % of control | dose: 200.0 mg/kg/injection, schedule: Q04DX003 (ip), vehicle: saline with Tween-80 95 % of control

COc1cc2c(cc1OC)C(C)P(C)(=O)CC2O (stereo unspecified)
inactive: dose: 100.0 mg/kg/injection, schedule: Q04DX002 (ip), vehicle: saline with Tween-80 100 % of control | dose: 100.0 mg/kg/injection, schedule: Q04DX002 (ip), vehicle: saline 109 % of control | dose: 200.0 mg/kg/injection, schedule: Q04DX002 (ip), vehicle: saline with Tween-80 107 % of control | dose: 200.0 mg/kg/injection, schedule: Q04DX002 (ip), vehicle: saline 98 % of control | dose: 400.0 mg/kg/injection, schedule: Q04DX002 (ip), vehicle: saline with Tween-80 100 % of control | dose: 400.0 mg/kg/injection, schedule: Q04DX002 (ip), vehicle: saline 98 % of control

FC(F)(F)C1(C(F)(F)F)[O][Sb]([c]2ccccc2)([c]2ccccc2)([c]2ccccc2)[O]1
inactive: dose: 50.0 mg/kg/injection, schedule: Q01DX009 (ip), vehicle: Klucel (hydroxypropylcellulose) (HPC) 100 % of control | dose: 100.0 mg/kg/injection, schedule: Q01DX009 (ip), vehicle: Klucel (hydroxypropylcellulose) (HPC) 101 % of control
